What all share (format): in vivo
For experiment [1], the system named is pigweed (Amaranthus retroflexus). Put plainly: Test A preemergence. The note with it: Amaranthus retroflexus, pre-emergence, 240 h; for pest or weed control at 125 g/ha: 125 g ai/ha, preemergence, 0 to 100 scale where 0 is no effect and 100 is complete control, read-out: Pigweed plant response rating; for pest or weed control at 500 g/ha: 500 g ai/ha, Preemergence, visual injury vs untreated controls after approximately 10 d, read-out: Pigweed plant response rating (0 to 100 scale where 0 is no effect and 100 is complete control).

Experiment [2] relates to ragweed (common ragweed, Ambrosia elatior). Briefly: Test A preemergence. The note with it: Ambrosia artemisiifolia, pre-emergence, 240 h; for pest or weed control at 125 g/ha: 125 g ai/ha, preemergence, 0 to 100 scale where 0 is no effect and 100 is complete control, read-out: Ragweed plant response rating; for pest or weed control at 500 g/ha: 500 g ai/ha, Preemergence, visual injury vs untreated controls after approximately 10 d, read-out: Ragweed plant response rating (0 to 100 scale where 0 is no effect and 100 is complete control). The essentials: (§1)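 Visual injury scores from 0, no effect, to 100, complete control, were assigned versus untreated controls roughly 10 d after treatment in the greenhouse. Test chemicals, formulated with surfactant in a non-phytotoxic solvent, were applied to planted seeds as a preemergence soil spray or postemergence to one- to two-leaf plants 2 to 10 cm tall, in loam–sand soil.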

Experiment [3] deals with Kochia (Kochia scoparia). Put plainly: Test A preemergence. The note with it: Bassia scoparia, pre-emergence, 240 h; for pest or weed control at 125 g/ha: 125 g ai/ha, preemergence, 0 to 100 scale where 0 is no effect and 100 is complete control, read-out: Kochia plant response rating; for pest or weed control at 500 g/ha: 500 g ai/ha, Preemergence, visual injury vs untreated controls after approximately 10 d, read-out: Kochia plant response rating (0 to 100 scale where 0 is no effect and 100 is complete control). In short, it runs like this:
as §1

The test system of experiment [4] is giant foxtail (Setaria faberii). Put plainly: Test A preemergence. The note with it: Setaria faberi, pre-emergence, 240 h; for pest or weed control at 125 g/ha: 125 g ai/ha, preemergence, 0 to 100 scale where 0 is no effect and 100 is complete control, read-out: Foxtail, Giant plant response rating; for pest or weed control at 500 g/ha: 500 g ai/ha, Preemergence, visual injury vs untreated controls after approximately 10 d, read-out: Foxtail, Giant plant response rating (0 to 100 scale where 0 is no effect and 100 is complete control). The essentials: as §1

The test system of experiment [5] is barnyardgrass (Echinochloa crus-galli). Put plainly: Test A preemergence. The note with it: Echinochloa crus-galli, pre-emergence, 240 h; for pest or weed control at 125 g/ha: 125 g ai/ha, preemergence, 0 to 100 scale where 0 is no effect and 100 is complete control, read-out: Barnyardgrass plant response rating; for pest or weed control at 500 g/ha: 500 g ai/ha, Preemergence, visual injury vs untreated controls after approximately 10 d, read-out: Barnyardgrass plant response rating (0 to 100 scale where 0 is no effect and 100 is complete control). The essentials: as §1

Experiment [6] deals with ryegrass, Italian (Italian ryegrass, Lolium multiflorum). Put plainly: Test A preemergence. The note with it: Lolium multiflorum, pre-emergence, 240 h; for pest or weed control at 125 g/ha: 125 g ai/ha, preemergence, 0 to 100 scale where 0 is no effect and 100 is complete control, read-out: Ryegrass, Italian plant response rating; for pest or weed control at 500 g/ha: 500 g ai/ha, Preemergence, visual injury vs untreated controls after approximately 10 d, read-out: Ryegrass, Italian plant response rating (0 to 100 scale where 0 is no effect and 100 is complete control). In short, it runs like this: as §1

Experiment [7] has as its system Galium (catchweed bedstraw, Galium aparine). Put plainly: Test A postemergence. The note with it: Galium, post-emergence, 240 h, 125 g ai/ha, postemergence, visual injury rating after approximately 10 d; read-out: Galium plant response rating (0 to 100 scale, 0 no effect, 100 complete control). The essentials:
as §1

Experiment [8] relates to corn (Zea mays). Put plainly: Test A postemergence. The note with it: Zea mays, post-emergence, 240 h, 125 g ai/ha, postemergence, visual injury rating after approximately 10 d; read-out: Corn plant response rating (0 to 100 scale, 0 no effect, 100 complete control). In short, it runs like this:
as §1

The test system of experiment [9] is ragweed (common ragweed, Ambrosia elatior). Put plainly: Test A postemergence. The note with it: Ambrosia artemisiifolia, post-emergence, 240 h, 125 g ai/ha, postemergence, visual injury rating after approximately 10 d; read-out: Ragweed plant response rating (0 to 100 scale, 0 no effect, 100 complete control). The essentials: as §1
Experiment [10] has as its system Kochia (Kochia scoparia). Put plainly: Test A postemergence. The note with it: Bassia scoparia, post-emergence, 240 h, 125 g ai/ha, postemergence, visual injury rating after approximately 10 d; read-out: Kochia plant response rating (0 to 100 scale, 0 no effect, 100 complete control). In short, it runs like this:
as §1

In experiment [11] the test system is giant foxtail (Setaria faberii). Put plainly: Test A postemergence. The note with it: Setaria faberi, post-emergence, 240 h, 125 g ai/ha, postemergence, visual injury rating after approximately 10 d; read-out: Foxtail, Giant plant response rating (0 to 100 scale, 0 no effect, 100 complete control). The essentials: as §1
The subject of experiment [12] is barnyardgrass (Echinochloa crus-galli). Put plainly: Test A postemergence. The note with it: Echinochloa crus-galli, post-emergence, 240 h, 125 g ai/ha, postemergence, visual injury rating after approximately 10 d; read-out: Barnyardgrass plant response rating (0 to 100 scale, 0 no effect, 100 complete control). In short, it runs like this:
as §1

The subject of experiment [13] is wheat (Triticum aestivum). Put plainly: Test A postemergence. The note with it: Triticum aestivum, post-emergence, 240 h, 125 g ai/ha, postemergence, visual injury rating after approximately 10 d; read-out: Wheat plant response rating (0 to 100 scale, 0 no effect, 100 complete control). In short, it runs like this:
as §1

The subject of experiment [14] is blackgrass (Alopecurus myosuroides). Briefly: Test A postemergence. The note with it: Alopecurus myosuroides, post-emergence, 240 h, 125 g ai/ha, postemergence, visual injury rating after approximately 10 d; read-out: Blackgrass plant response rating (0 to 100 scale, 0 no effect, 100 complete control). The essentials: as §1
Experiment [15] has as its system ryegrass, Italian (Italian ryegrass, Lolium multiflorum). Briefly: Test A postemergence. The note with it: Lolium multiflorum, post-emergence, 240 h, 125 g ai/ha, postemergence, visual injury rating after approximately 10 d; read-out: Ryegrass, Italian plant response rating (0 to 100 scale, 0 no effect, 100 complete control). In short, it runs like this:
as §1

This passage reports pest or weed control and plant injury results from patent US12077503B2, “Substituted cyclic amides and their use as herbicides” (FMC CORPORATION, priority 2015, dated 2024).

Molecules are shown by their SMILES.

Turning to `CCOc1ccc([C@H]2CN(C)C(=O)[C@@H]2C(=O)Nc2cccc(F)c2F)cc1` [Compound 904], the pest or weed control at 125 g/ha worked out at 0% in [1]; 0% in experiment [2]; 90% in experiment [3]; 90% in [4]; 90% in [5]; 0% in [6]. The pest or weed control at 125 g/ha in experiment [7] was found to be 30%; in [9] it was 0%; in [10], 30%; in experiment [11], 80%; in experiment [12], 80%; in [14], 30%. In addition, the pest or weed control at 125 g/ha in experiment [15] amounted to 0%. Further, the pest or weed control at 500 g/ha in [1] is 50%; in [2], 0%; in experiment [3], 90%; in [4], 90%; in [5], 90%; in experiment [6], 0%. The plant injury at 125 g/ha in experiment [8] and in experiment [13] was 0% in each case.

Take `Cc1cc(C)cc([C@H]2CN(C)C(=O)[C@@H]2C(=O)Nc2cccc(F)c2F)c1` [Compound 911]: the pest or weed control at 125 g/ha in experiment [1] was determined as 20%; in experiment [2], 0%; in experiment [3], 90%; in experiment [4] it was 90%; in [5], 90%; in experiment [6], 70%. The pest or weed control at 125 g/ha in [7] turned out to be 40%; in experiment [9] it was 0%; in experiment [10], 50%; in [11], 90%; in experiment [12], 90%; in experiment [14], 50%. The pest or weed control at 125 g/ha in experiment [15] came out at 70%. The pest or weed control at 500 g/ha in experiment [1] was found to be 50%; in [2], 60%; in experiment [3], 100%; in experiment [4] it was 100%; in experiment [5] it was 100%; in experiment [6], 90%. Also, the plant injury at 125 g/ha in experiment [8] is 80%; in experiment [13] it was 50%.

With `COc1cccc(C2CN(C)C(=O)C2C(=O)Nc2cccc(F)c2F)c1` (stereo not drawn) [Compound 886], the pest or weed control at 125 g/ha in experiment [1] worked out at 0%; in experiment [2], 0%; in experiment [3], 80%; in [4], 90%; in experiment [5], 90%; in experiment [6], 0%. In addition, the pest or weed control at 125 g/ha in experiment [7] stood at 0%; in experiment [9], 0%; in experiment [10], 0%; in experiment [11], 90%; in experiment [12] it was 90%; in experiment [14], 20%. Also, in experiment [15], the pest or weed control at 125 g/ha was found to be 20%. The pest or weed control at 500 g/ha was 0% in [1]; 50% in experiment [2]; 90% in experiment [3]; 100% in experiment [4]; 90% in [5]; 60% in experiment [6]. The plant injury at 125 g/ha in experiment [8] was determined as 40%; in experiment [13], 0%.
